Reference: patent US12582617B2, “Methods for treating cancer” (RADIUS PHARMACEUTICALS, INC., priority 2015, dated 2026)
Structures can show the parent of a compound that is named as a salt.

Assay: Phase 1 dose escalation study: safety, treatment related AEs
Assay type: in vivo
Method: The subjects were 40-75 years old with BMI of 18.0-30 kg/m^2. Subjects having evidence of clinically relevant pathology, increased risk of stroke or of history venous thromboembolic events, or use of concomitant medication less than 14 days prior to admission to clinical research center (paracetamol allowed up to 3 days prior) were excluded.
The subjects were treated with placebo or at least one dose p.o., q.d. after a light breakfast for 7 days at dose levels of 200 mg, 500 mg, 750 mg and 1000 mg, respectively.

## CCNCCc1ccc(CN(CC)c2cc(OC)ccc2[C@@H]2CCc3cc(O)ccc3C2)cc1 [RAD1901, (6R)-6-(2-(N-(4-(2-(ethylamino)ethyl)benzyl)-N-ethylamino)-4-methoxyphenyl)-5,6,7,8-tetrahydronaphthalen-2-ol dihydrochloride]
200 mg, Gr1
  Abdominal discomfort (treatment related AE): 3 n(%)
  Abdominal distension (treatment related AE): 1 n(%)
  Abdominal pain (treatment related AE): 2 n(%)
  Diarrhoea (treatment related AE): 0 n(%)
  Dizziness (treatment related AE): 1 n(%)
  Dyspepsia (treatment related AE): 3 n(%)
  Dysphagia (treatment related AE): 0 n(%)
  Flatulance (treatment related AE): 2 n(%)
  Headache (treatment related AE): 3 n(%)
  Hiccups (treatment related AE): 1 n(%)
  Hot flush (treatment related AE): 2 n(%)
  Myalgia (treatment related AE): 2 n(%)
  Nausea (treatment related AE): 5 n(%)
  Odynophagia (treatment related AE): 2 n(%)
  Oesophageal pain (treatment related AE): 0 n(%)
  Salivary hypersecretion (treatment related AE): 2 n(%)
  Sensation of a foreign body (treatment related AE): 2 n(%)
  Vomiting (treatment related AE): 2 n(%)
200 mg, Gr2
  Abdominal discomfort (treatment related AE): 0 n(%)
  Abdominal distension (treatment related AE): 1 n(%)
  Abdominal pain (treatment related AE): 2 n(%)
  Diarrhoea (treatment related AE): 0 n(%)
  Dizziness (treatment related AE): 0 n(%)
  Dyspepsia (treatment related AE): 0 n(%)
  Dysphagia (treatment related AE): 0 n(%)
  Flatulance (treatment related AE): 0 n(%)
  Headache (treatment related AE): 0 n(%)
  Hiccups (treatment related AE): 0 n(%)
  Hot flush (treatment related AE): 0 n(%)
  Myalgia (treatment related AE): 1 n(%)
  Nausea (treatment related AE): 0 n(%)
  Odynophagia (treatment related AE): 0 n(%)
  Oesophageal pain (treatment related AE): 2 n(%)
  Salivary hypersecretion (treatment related AE): 0 n(%)
  Sensation of a foreign body (treatment related AE): 0 n(%)
  Vomiting (treatment related AE): 0 n(%)
200 mg, Gr3
  Abdominal discomfort (treatment related AE): 0 n(%)
  Abdominal distension (treatment related AE): 0 n(%)
  Abdominal pain (treatment related AE): 0 n(%)
  Diarrhoea (treatment related AE): 0 n(%)
  Dizziness (treatment related AE): 0 n(%)
  Dyspepsia (treatment related AE): 0 n(%)
  Dysphagia (treatment related AE): 0 n(%)
  Flatulance (treatment related AE): 0 n(%)
  Headache (treatment related AE): 0 n(%)
  Hiccups (treatment related AE): 0 n(%)
  Hot flush (treatment related AE): 0 n(%)
  Myalgia (treatment related AE): 0 n(%)
  Nausea (treatment related AE): 0 n(%)
  Odynophagia (treatment related AE): 0 n(%)
  Oesophageal pain (treatment related AE): 0 n(%)
  Salivary hypersecretion (treatment related AE): 0 n(%)
  Sensation of a foreign body (treatment related AE): 0 n(%)
  Vomiting (treatment related AE): 0 n(%)
500 mg, Gr1
  Abdominal discomfort (treatment related AE): 0 n(%)
  Abdominal distension (treatment related AE): 1 (7) n(%)
  Abdominal pain (treatment related AE): 3 (21) n(%)
  Diarrhoea (treatment related AE): 3 (21) n(%)
  Dizziness (treatment related AE): 2 (14) n(%)
  Dyspepsia (treatment related AE): 5 (36) n(%)
  Dysphagia (treatment related AE): 1 (7) n(%)
  Flatulance (treatment related AE): 2 (14) n(%)
  Headache (treatment related AE): 1 (7) n(%)
  Hiccups (treatment related AE): 4 (29) n(%)
  Hot flush (treatment related AE): 6 (43) n(%)
  Myalgia (treatment related AE): 0 n(%)
  Nausea (treatment related AE): 3 (21) n(%)
  Odynophagia (treatment related AE): 1 (7) n(%)
  Oesophageal pain (treatment related AE): 1 (7) n(%)
  Salivary hypersecretion (treatment related AE): 2 (14) n(%)
  Sensation of a foreign body (treatment related AE): 1 (7) n(%)
  Vomiting (treatment related AE): 1 (7) n(%)
